Data from ChEMBL document CHEMBL5729558, “Morpholinylpyridone compounds” (2023).

biological target: Phosphatidylinositol 3-kinase catalytic subunit type 3 (Homo sapiens, UniProt Q8NEB9); assay: Vps34 Biochemical Assay: Dilution series of compounds of the invention were prepared in DMSO at 100 times the final assay concentration (n1=n0/3 in 10 points). The compounds were further diluted to 4 times the assay concentration in assay buffer (Life technologies buffer Q, PV5125, diluted 5 times supplemented with 2 mM DTT and 2 mM MnCl2). 2.5 μl of the diluted compounds were added to a 384 well assay plate followed by 2.5 μl of 16.5 nM Vps34 enzyme (Life technologies, PV5126). Enzyme and compounds were pre-incubated at rt for 15 min. Then 5 μl of substrate mix containing 20 μM ATP (Life technologies, PV3227) and 200 μM PI:PS substrate (Life technologies, PV5122) in assay buffer was added to the wells containing compound and enzyme. Mixing was performed by pipetting several times. The reaction was incubated at room temperature for 1 h. Then 5 μl stop-detection mix, prepared as described in the Adapta kinase assay kit instructions (Life technologies, PV5099) containing Adapta Eu-anti-ADP antibody (2.3 nM), Alexa Fluor 647 ADP tracer (9 nM) and EDTA (30 mM) in TR-FRET buffer, was added to quench the reaction. Mixing was performed by pipetting several times. The assay plate was then incubated at room temperature for 30 min and read with Artemis micro plate reader. Percent inhibition of the compounds as compared to DMSO treated control samples was calculated. By the use of Dotmatics software compound concentration versus percent inhibition was fitted to generate IC50 values.
Sequence (Q8NEB9 whole entry): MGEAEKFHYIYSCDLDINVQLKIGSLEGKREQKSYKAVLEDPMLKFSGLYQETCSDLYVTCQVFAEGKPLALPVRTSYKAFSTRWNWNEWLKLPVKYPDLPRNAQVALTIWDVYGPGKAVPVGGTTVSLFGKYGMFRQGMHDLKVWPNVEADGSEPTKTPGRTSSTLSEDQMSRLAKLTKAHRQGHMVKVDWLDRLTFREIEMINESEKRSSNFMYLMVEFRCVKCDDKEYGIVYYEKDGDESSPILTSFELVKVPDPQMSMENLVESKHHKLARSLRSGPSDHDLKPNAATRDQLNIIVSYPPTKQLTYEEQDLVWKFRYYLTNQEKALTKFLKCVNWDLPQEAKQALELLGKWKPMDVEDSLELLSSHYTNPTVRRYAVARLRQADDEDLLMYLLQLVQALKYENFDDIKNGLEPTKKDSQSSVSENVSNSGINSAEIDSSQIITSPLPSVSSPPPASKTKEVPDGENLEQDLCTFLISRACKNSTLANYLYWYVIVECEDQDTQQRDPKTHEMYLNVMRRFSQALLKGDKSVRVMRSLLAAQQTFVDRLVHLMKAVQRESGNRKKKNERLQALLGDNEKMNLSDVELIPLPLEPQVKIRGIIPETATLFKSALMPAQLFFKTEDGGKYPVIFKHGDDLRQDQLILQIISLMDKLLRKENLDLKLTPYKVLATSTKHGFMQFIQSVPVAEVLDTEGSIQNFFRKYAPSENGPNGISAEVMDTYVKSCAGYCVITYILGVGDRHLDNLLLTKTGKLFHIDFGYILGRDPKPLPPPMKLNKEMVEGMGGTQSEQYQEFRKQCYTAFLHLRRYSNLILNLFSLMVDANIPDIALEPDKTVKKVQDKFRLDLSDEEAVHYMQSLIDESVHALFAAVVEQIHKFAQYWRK

Compound | IC50 [nM]
C[C@@H]1COCCN1c1cc(N2CCN(S(=O)(=O)c3ccnn3C)CC2C(F)(F)F)[nH]c(=O)c1 (stereo partly drawn) | < 5
C[C@@H]1COCCN1c1cc(N2CCN(S(=O)(=O)C3CC3)CC2C(F)(F)F)[nH]c(=O)c1 (stereo partly drawn) | < 5
C[C@@H]1COCCN1c1cc(N2CCN(S(=O)(=O)N3CCOCC3)CC2C(F)(F)F)[nH]c(=O)c1 (stereo partly drawn) | < 5
